From the NIST ThermoML archive (doi:10.1016/j.jct.2019.06.028)
± gives the expanded uncertainty stated by the source.

Experiments:
[1] = xn = mol fraction of the nth substance listed; conditions: 101 kPa, Liquid, Vibrating tube method
[2] = 101 kPa, Liquid, Vibrating tube method

CC(N)=O [ethanamide] + O
mass density ([1]; 278.15 K, x1 = 0.0045): 1001.13 ± 0.09 kg/m3 | mass density ([1]; 278.15 K, x1 = 0.00696): 1001.77 ± 0.09 kg/m3 | mass density ([1]; 278.15 K, x1 = 0.01255): 1003.21 ± 0.09 kg/m3 | mass density ([1]; 278.15 K, x1 = 0.0221): 1005.68 ± 0.09 kg/m3 | mass density ([1]; 278.15 K, x1 = 0.03704): 1009.47 ± 0.09 kg/m3 | mass density ([1]; 278.15 K, x1 = 0.04992): 1012.61 ± 0.09 kg/m3 | mass density ([1]; 278.15 K, x1 = 0.0607): 1015.11 ± 0.12 kg/m3 | mass density ([1]; 278.15 K, x1 = 0.07958): 1019.24 ± 0.12 kg/m3 | mass density ([1]; 278.15 K, x1 = 0.09463): 1022.32 ± 0.12 kg/m3 | mass density ([1]; 278.15 K, x1 = 0.1128): 1025.82 ± 0.26 kg/m3 | mass density ([1]; 278.15 K, x1 = 0.1325): 1029.34 ± 0.25 kg/m3 | mass density ([1]; 278.15 K, x1 = 0.159): 1033.54 ± 0.24 kg/m3 | mass density ([1]; 278.15 K, x1 = 0.1991): 1038.57 ± 0.23 kg/m3 | mass density ([1]; 278.15 K, x1 = 0.2503): 1043.75 ± 0.23 kg/m3 | mass density ([1]; 288.15 K, x1 = 0.0045): 1000.13 ± 0.09 kg/m3 | mass density ([1]; 288.15 K, x1 = 0.00696): 1000.68 ± 0.09 kg/m3 | mass density ([1]; 288.15 K, x1 = 0.01255): 1001.93 ± 0.09 kg/m3 | mass density ([1]; 288.15 K, x1 = 0.0221): 1004.08 ± 0.09 kg/m3 | mass density ([1]; 288.15 K, x1 = 0.03704): 1007.37 ± 0.09 kg/m3 | mass density ([1]; 288.15 K, x1 = 0.04992): 1010.12 ± 0.09 kg/m3 | mass density ([1]; 288.15 K, x1 = 0.0607): 1012.3 ± 0.12 kg/m3 | mass density ([1]; 288.15 K, x1 = 0.07958): 1015.92 ± 0.12 kg/m3 | mass density ([1]; 288.15 K, x1 = 0.09463): 1018.65 ± 0.12 kg/m3 | mass density ([1]; 288.15 K, x1 = 0.1128): 1021.71 ± 0.25 kg/m3 | mass density ([1]; 288.15 K, x1 = 0.1325): 1024.81 ± 0.24 kg/m3 | mass density ([1]; 288.15 K, x1 = 0.159): 1028.5 ± 0.23 kg/m3 | mass density ([1]; 288.15 K, x1 = 0.1991): 1032.99 ± 0.23 kg/m3 | mass density ([1]; 288.15 K, x1 = 0.2503): 1037.61 ± 0.22 kg/m3 | mass density ([1]; 288.15 K, x1 = 0.3039): 1041.06 ± 0.22 kg/m3 | mass density ([1]; 288.15 K, x1 = 0.3456): 1043.19 ± 0.23 kg/m3 | mass density ([1]; 298.15 K, x1 = 0.0045): 997.95 ± 0.09 kg/m3 | mass density ([1]; 298.15 K, x1 = 0.00696): 998.45 ± 0.09 kg/m3 | mass density ([1]; 298.15 K, x1 = 0.01255): 999.55 ± 0.09 kg/m3 | mass density ([1]; 298.15 K, x1 = 0.0221): 1001.45 ± 0.09 kg/m3 | mass density ([1]; 298.15 K, x1 = 0.03704): 1004.39 ± 0.09 kg/m3 | mass density ([1]; 298.15 K, x1 = 0.04992): 1006.82 ± 0.09 kg/m3 | mass density ([1]; 298.15 K, x1 = 0.0607): 1008.75 ± 0.12 kg/m3 | mass density ([1]; 298.15 K, x1 = 0.07958): 1011.95 ± 0.12 kg/m3 | mass density ([1]; 298.15 K, x1 = 0.09463): 1014.35 ± 0.12 kg/m3 | mass density ([1]; 298.15 K, x1 = 0.1128): 1017.06 ± 0.24 kg/m3 | mass density ([1]; 298.15 K, x1 = 0.1325): 1019.79 ± 0.23 kg/m3 | mass density ([1]; 298.15 K, x1 = 0.159): 1023.07 ± 0.23 kg/m3 | mass density ([1]; 298.15 K, x1 = 0.1991): 1027.09 ± 0.22 kg/m3 | mass density ([1]; 298.15 K, x1 = 0.2503): 1031.18 ± 0.22 kg/m3 | mass density ([1]; 298.15 K, x1 = 0.3039): 1034.29 ± 0.22 kg/m3 | mass density ([1]; 298.15 K, x1 = 0.3456): 1036.18 ± 0.22 kg/m3 | mass density ([1]; 298.15 K, x1 = 0.3875): 1037.52 ± 0.23 kg/m3 | mass density ([1]; 308.15 K, x1 = 0.0045): 994.84 ± 0.09 kg/m3 | mass density ([1]; 308.15 K, x1 = 0.00696): 995.28 ± 0.09 kg/m3 | mass density ([1]; 308.15 K, x1 = 0.01255): 996.27 ± 0.09 kg/m3 | mass density ([1]; 308.15 K, x1 = 0.0221): 997.97 ± 0.09 kg/m3 | mass density ([1]; 308.15 K, x1 = 0.03704): 1000.6 ± 0.09 kg/m3 | mass density ([1]; 308.15 K, x1 = 0.04992): 1002.79 ± 0.09 kg/m3 | mass density ([1]; 308.15 K, x1 = 0.0607): 1004.54 ± 0.12 kg/m3 | mass density ([1]; 308.15 K, x1 = 0.07958): 1007.37 ± 0.12 kg/m3 | mass density ([1]; 308.15 K, x1 = 0.09463): 1009.49 ± 0.12 kg/m3 | mass density ([1]; 308.15 K, x1 = 0.1128): 1011.89 ± 0.23 kg/m3 | mass density ([1]; 308.15 K, x1 = 0.1325): 1014.32 ± 0.23 kg/m3 | mass density ([1]; 308.15 K, x1 = 0.159): 1017.25 ± 0.22 kg/m3 | mass density ([1]; 308.15 K, x1 = 0.1991): 1020.83 ± 0.22 kg/m3 | mass density ([1]; 308.15 K, x1 = 0.2503): 1024.52 ± 0.22 kg/m3 | mass density ([1]; 308.15 K, x1 = 0.3039): 1027.28 ± 0.22 kg/m3 | mass density ([1]; 308.15 K, x1 = 0.3456): 1028.97 ± 0.22 kg/m3 | mass density ([1]; 308.15 K, x1 = 0.3875): 1030.2 ± 0.22 kg/m3 | mass density ([1]; 323.15 K, x1 = 0.0045): 988.72 ± 0.09 kg/m3 | mass density ([1]; 323.15 K, x1 = 0.00696): 989.09 ± 0.09 kg/m3 | mass density ([1]; 323.15 K, x1 = 0.01255): 989.94 ± 0.09 kg/m3 | mass density ([1]; 323.15 K, x1 = 0.0221): 991.4 ± 0.09 kg/m3 | mass density ([1]; 323.15 K, x1 = 0.03704): 993.65 ± 0.09 kg/m3 | mass density ([1]; 323.15 K, x1 = 0.04992): 995.48 ± 0.09 kg/m3 | mass density ([1]; 323.15 K, x1 = 0.0607): 996.95 ± 0.12 kg/m3 | mass density ([1]; 323.15 K, x1 = 0.07958): 999.36 ± 0.12 kg/m3 | mass density ([1]; 323.15 K, x1 = 0.09463): 1001.16 ± 0.12 kg/m3 | mass density ([1]; 323.15 K, x1 = 0.1128): 1003.22 ± 0.23 kg/m3 | mass density ([1]; 323.15 K, x1 = 0.1325): 1005.31 ± 0.22 kg/m3 | mass density ([1]; 323.15 K, x1 = 0.159): 1007.78 ± 0.22 kg/m3 | mass density ([1]; 323.15 K, x1 = 0.1991): 1010.87 ± 0.22 kg/m3 | mass density ([1]; 323.15 K, x1 = 0.2503): 1013.96 ± 0.22 kg/m3 | mass density ([1]; 323.15 K, x1 = 0.3039): 1016.34 ± 0.22 kg/m3 | mass density ([1]; 323.15 K, x1 = 0.3456): 1017.76 ± 0.22 kg/m3 | mass density ([1]; 323.15 K, x1 = 0.3875): 1018.81 ± 0.22 kg/m3

O [water]
mass density ([2]; 278.15 K): 999.96 ± 0.09 kg/m3 | mass density ([2]; 323.15 K): 988.03 ± 0.09 kg/m3

O [water] + CC(N)=O
mass density ([1]; 278.15 K, x2 = 0): 999.96 ± 0.09 kg/m3 | mass density ([1]; 323.15 K, x2 = 0): 988.03 ± 0.09 kg/m3
